Like-named read-outs stand apart in the source and are kept apart here.

The source of these data is US7049133B2, “Regulation of gene expression through manipulation of mRNA splicing and its uses” (Yissum Research Development Company of the Hebrew …, priority 1998, dated 2006).

Series [1] concerns splicing of TNF-β precursor transcripts. The experiment in a line: RNase protection analysis of TNF-β precursor transcripts and spliced RNA in transfected BHK-21 cells. Type of series: cell-based, hamster. On the procedure:
(§1) BHK-21 cells were grown in DMEM medium supplemented with 2 mM glutamine, 40 mM NaHCO3, 10 mM Hepes, pH 7.3, […] of penicillin and streptomycin, […] nystatin and 10% fetal calf serum. 2-AP (Sigma) was added at 10 mM unless otherwise indicated. To prepare a stock solution of 0.15 M, 2-AP was dissolved in phosphate-buffered saline by heating at 70° C. for 10 min.
(§2) In the experiments of FIGS. 2 and 3, monolayers of BHK-21 cells were seeded at a density of 1−2×10^6 cells/8-cm Petri dish and grown overnight; 4 h before cotransfection, culture medium was replaced. A mixture of […] of test DNA construct and 4 mg salmon sperm DNA carrier, and, when included, 2 mg pSV2CAT DNA [47], was permeated into cells by the calcium phosphate-DNA coprecipitation technique. After 12–18 h, culture medium was replaced with fresh medium prewarmed to 37° C. In the experiments of FIGS. 6 and 7, LipofectAmine (Life Technologies) was employed following instructions of the supplier, using 1 mg of each DNA for transfection.
(§3) For RNase protection analysis, DNA was subcloned in pBS (Stratagene) under the T3 or T7 promoter and transcribed using [a-^32P]UTP to generate labeled anti-sense RNA transcripts. A TNF-α RNA probe (map: FIG. 2A) was generated from a 821-bp EcoRI-Sau3AI fragment containing the 5′-flank, 151 -bp 5′-UTR, and first 6 codons. A second TNF-α RNA probe was generated from a 823-bp EcoRI-EcoRI 3′-UTR fragment from which a 5′-terminal fragment was removed by BstEII digestion, leaving 83 3′-terminal bp of the 3′-UTR and 250 bp beyond the 3′ cleavage site (map: FIG. 2A). A third TNF-α RNA probe (map: FIG. 2B) was generated from a 700-bp Sau3AI-Sau3AI fragment consisting of 10 bp of intron 2, exon 3, intron 3 and part of exon 4. A TNF-β probe was generated from a 637-bp Bsu36I-EcoRI DNA fragment, containing part of intron 3 and 571 bp of exon 4 (map: FIG. 3A). A second TNF-β RNA probe (map: FIG. 3B) was generated from a 324-bp EcoRI-Bsu36I DNA fragment, containing part of exon 1, exon 2, exon 3 and a portion of intron 3. A probe of 250-nt, generated from a HindIII-EcoRI fragment of the coding region of the CAT gene, was used to quantitate CAT mRNA. Intactness of RNA probes was assessed by polyacrylamide gel electrophoresis.
(§4) Total RNA was isolated using guanidinium isothiocyanate/CsC1. RNase protection analysis with RNases A and T1 was performed using genomic TNF-α and TNF-β riboprobes and CAT or actin probes as described. Protected RNA fragments were separated by electrophoresis in 5% polyacrylamide/8 M urea gels. Size markers in FIG. 3 were generated by MspI digestion of pGEM-3 DNA and filling in with [a-^32P]dCTP [12]. Size marker in FIG. 7 is a 100-bp DNA ladder (Fermentas) that was dephosphorylated and 5′ end-labeled with [γ-^32P]ATP.

The test system of series [2] is BHK-21 cells. Type of series: cell-based, baby hamster. On the procedure: as §1, §2
The test system of series [3] is CAT mRNA. The experiment in a line: RNase protection analysis of CAT mRNA in transfected BHK-21 cells. Type of series: cell-based. On the procedure:
as §1, §2
as §3, with “A second TNF-β RNA probe (map: FIG. 3B) was generated from a 324-bp EcoRI-Bsu36I DNA fragment, containing part of exon 1, exon 2, exon 3 and a portion of intron 3.” left out, “electrophoresis. […]” for “electrophoresis.”

Series [4] concerns splicing of TNF-α precursor transcripts. As to the kind of experiment: RNase protection analysis of TNF-α precursor transcripts and spliced mRNA in transfected BHK-21 cells. Format: cell-based, hamster. On the procedure: as §1, §2, §3, §4
In series [5] the target is T1, PKR (Oryctolagus cuniculus, UniProt A0A0U2KCE0).
T1 construct: phosphorylation of the PKR (68 kDa) and eIF2α (38 kDa) bands in the ribosome fraction of rabbit reticulocyte lysate; from tissue; host or cells: ribosome fraction of rabbit reticulocyte lysate
T1 sequence (A0A0U2KCE0 1-547): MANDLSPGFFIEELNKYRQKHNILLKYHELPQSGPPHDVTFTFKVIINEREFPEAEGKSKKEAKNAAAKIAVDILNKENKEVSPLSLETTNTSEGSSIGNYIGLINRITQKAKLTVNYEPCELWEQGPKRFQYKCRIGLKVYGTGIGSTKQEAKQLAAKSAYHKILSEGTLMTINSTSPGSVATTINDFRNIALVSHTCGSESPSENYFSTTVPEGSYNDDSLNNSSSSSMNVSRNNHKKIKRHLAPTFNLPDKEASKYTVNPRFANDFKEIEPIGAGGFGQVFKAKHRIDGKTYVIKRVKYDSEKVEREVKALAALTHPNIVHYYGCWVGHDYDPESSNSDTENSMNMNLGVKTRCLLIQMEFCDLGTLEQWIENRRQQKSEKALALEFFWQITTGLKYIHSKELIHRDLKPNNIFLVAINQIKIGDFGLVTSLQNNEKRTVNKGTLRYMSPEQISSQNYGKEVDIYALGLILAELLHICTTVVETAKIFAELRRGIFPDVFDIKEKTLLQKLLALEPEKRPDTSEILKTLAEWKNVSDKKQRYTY
The experiment in a line: Phosphorylation of PKR and eIF2α in ribosome fraction from rabbit reticulocyte lysate. Format: biochemical. The text has this: A 823-bp EcoRI-EcoRI TNF-α gene fragment comprised of 573 3′-terminal bp of the 3′-UTR, the polyadenylation site and downstream sequences from pTNF-α was inserted into pBS under the T7 promoter. To obtain 3′-UTR sense transcripts, the DNA was digested with PstI (EP), NcoI (EN), AflIII (EA), SspI (ES) or XmnI (EX) and then transcribed in vitro. A 616-bp NcoI-EcoRI TNF-α gene fragment comprised of 366 3′-terminal bp of the 3′-UTR, the polyadenylation site and downstream sequences from pTNF-α was inserted into pBS under the T7 promoter. To obtain 3′-UTR sense transcripts, the DNA was digested with AflIII (NA) or XmnI (NX) and then transcribed in vitro. A 572-bp EcoRI-PstI TNF-β gene fragment comprised of 389 3′-terminal bp of the 3′-UTR, the polyadenylation site and downstream sequences from pTNF-β was inserted into pBS under the T7 promoter. To obtain 3′-UTR sense transcript, the DNA was digested with PstI and then transcribed in vitro. EP RNA transcript was purified by agarose gel electrophoresis, followed by chromatography on CF-11 cellulose, washing with ethanol and eluting with water as described. Phosphorylation of PKR and eIF2α chain was assayed by incubating polyI:polyC or 3′-UTR transcript with the ribosome fraction from rabbit reticulocyte lysate in the presence of [γ-^32P]ATP for 20 min at 30° C. as described and subjecting the reaction mixture to electrophoresis in 10% polyacryamide gels containing sodium dodecyl sulfate.

The subject of series [6] is primary human lymphoid cells. As to conditions: cited from earlier work.
The mark [7] stands for this setting: pTNF-α(3′UTR-β), 2-AP from 16 h.
Where [8] appears, read: pTNF-α, 2-AP 10 mM from 18 h after transfection.
[9] abbreviates: pTNF-β(3′UTR-α), 2-AP in presence of CHX.
Where [10] appears, read: pTNF-β(3′UTR-α), intron 3/exon 4 probe, 2-AP from 16 h.

Consider `C[C@@H]1C[C@@H]([C@H](O)CC2CC(=O)NC(=O)C2)C(=O)[C@@H](C)C1` [CHX], for which, in series [1] (pTNF-β(3′UTR-α), CHX from 16 h), the “Expression of both precursor transcripts and spliced RNA” value is “enhanced expression”.

Consider `Nc1ncc2[nH]cnc2n1` [2-AP, 2-Aminopurine], for which the Cell viability result in series [2] (FIG. 2 experiments, 2-AP up to 10 mM) was “remained constant”. Also, the Cell viability entry in series [2] (FIG. 3 experiments, 2-AP and CHX present) is “remained constant”. Besides, in series [3] (p5′CAT(3′UTR-α)), the “Expression of CAT mRNA carrying TNF-α3′-UTR portion” value is listed as “unaffected”. Besides, the “Expression of CAT mRNA” value in series [3] (p5′CAT, 10 mM 2-AP) is reported as “proceeded unabated”. The “Expression of a cotransfected CAT gene” value in series [3] (pSV2CAT cotransfected with pTNF-α, 2-AP 10 mM) is listed as “not affected”. In series [4] (pTNF-α(3′UTR-αEP), 2-AP added at 20 h), the mRNA entry is “decline”. The “Rise in precursor transcripts” value in series [4] (pTNF-α(3′UTR-αEP), 2-AP added at 20 h, at 53 h) is recorded as “up to 36 fold”. For the same molecule, in series [4] (setting [7]), the “Expression of spliced mRNA (341-nt band)” value is recorded as “failed to decline” and the “Precursor transcripts (700 nt)” value is listed as “nor did precursor transcripts (700 nt) increase”. For the same molecule, in series [4] (pTNF-α(Δ3′UTR), 2-AP 10 mM), the “Accumulation of precursor transcripts” value is “nor was there any enhanced accumulation” and the “Expression of mRNA” value is listed as “no longer inhibited”. Besides, the “Expression of TNF-α RNA transcripts” value in series [4] (pTNF-α, 2-AP 2 mM from time of transfection) is reported as “reduction”. Further, in series [4] (pTNF-α, 2-AP 6 mM from time of transfection), the “Expression of TNF-α RNA transcripts” value is listed as “full inhibition”. For the same molecule, in series [4] (setting [8]), the “Expression of spliced TNF-α mRNA (341-nt band)” value is reported as “strongly inhibited” and the “TNF-α precursor transcripts (700-nt band)” value is given as “enhanced accumulation”. Also, the “Sensitivity of PKR activation by 3′UTR-αEP RNA to 2-AP, compared with activation by dsRNA” value in series [5] (1 mM 2-AP) is on record as “less sensitive”. In addition, the “Phosphorylation of PKR and eIF2α driven by purified 3′UTR-αEP RNA” value in series [5] (1 and 5 mM of 2-AP) is listed as “inhibited progressively”. Moreover, in series [1], the “Sensitivity of splicing of TNF-β precursor transcripts carrying an inverted TNF-α3′-UTR sequence, compared with TNF-β(3′UTR-α) transcripts” value is “as sensitive”. In addition, in series [1] (setting [9]), the “Generation of spliced RNA” value is “inhibited” and the Precursor transcripts entry is “increased”. Further, in series [1] (setting [10]), the Precursor transcripts result is recorded as “strong increase” and the “Spliced RNA” value is “concomitant decline”. The “Spliced mRNA versus precursor transcripts” value in series [1] (pTNF-β(3′UTR-αEP), 2-AP added at 20 h) was “pronounced shift from spliced mRNA to precursor transcripts”. Moreover, in series [1] (pTNF-β(Δ3′UTR)), the “Expression of spliced TNF-β RNA” value is “insensitive”. Also, the “Spliced RNA (214-nt band) and precursor transcripts” value in series [1] (pTNF-β, exon 1-3/intron 3 probe, 2-AP from 12 h) is “decrease”. The “TNF-β precursor transcripts (637 nt) and mRNA (571 nt)” value in series [1] (pTNF-β, intron 3/exon 4 probe, 2-AP from 12 h) is “precursors and mRNA both declined”. The “TNF-β precursor transcripts and spliced mRNA” value in series [6] (lymphoid cells, increasing doses) was “coordinate decline”. For the same molecule, in series [6] (primary human lymphoid cells), the “Expression of TNF-α mRNA” value is given as “blocks expression”.

B1: 3′UTR-αEP RNA: T7 RNA transcript of the 104-bp EcoRI-PstI fragment of the human TNF-α3′-UTR (2-APRE, SEQ ID NO:1) (nucleic acid, listed as Homo sapiens)
chain: GAATTCAAACTGGGGCCTCCAGAACTCACTGGGGCCTACAGCTTTGATCCCTGACATCTGGAATCTGGAGACCAGGGAGCCTTTGGTTCTGGCCAGAATGCTGC
modifications: RNA, all phosphodiester, T or U not given here
For the molecule B1, the “Induced phosphorylation of PKR and eIF2α, dependence on RNA concentration” value in series [5] is “at low but not high RNA concentrations”. The “Activation of PKR, judged by phosphorylation of PKR (68 kDa) and eIF2α (38 kDa) bands” value in series [5] (RNA 0.05 ng/ml, compared with dsRNA) is “activated PKR even more strongly than dsRNA”. The “Molar specific activity as inducer of PKR phosphorylation” value in series [5] (each TNF RNA at 0.05 ng/ml) is on record as “highest molar specific activity”.
